Publication PMC3879630 (Molecular & Cellular Proteomics : MCP, 2013)
Numbering of substitutions follows the chain as printed.

Legend:
Assay in all cases: biotin-switch assay, anti-GST western blot
Assay type in all cases: binding
RNF41 [1] = target: T1, RNF41 (Homo sapiens, UniProt Q9H4P4, C134S); conditions: covalent (S-nitrosylation of cysteine); 100 μM GSNO
T1 sequence (Q9H4P4 1-317 C134S): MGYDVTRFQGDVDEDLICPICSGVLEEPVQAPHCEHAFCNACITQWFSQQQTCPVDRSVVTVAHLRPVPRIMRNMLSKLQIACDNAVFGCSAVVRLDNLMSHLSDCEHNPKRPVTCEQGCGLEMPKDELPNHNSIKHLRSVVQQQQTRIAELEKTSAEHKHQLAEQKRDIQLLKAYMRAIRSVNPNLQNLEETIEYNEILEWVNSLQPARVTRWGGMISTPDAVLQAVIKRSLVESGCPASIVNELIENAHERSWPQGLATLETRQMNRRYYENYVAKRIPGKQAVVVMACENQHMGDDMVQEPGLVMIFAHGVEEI

RNF141 [2] = target: T2, RNF141 (Homo sapiens, UniProt Q8WVD5, C82S); conditions: covalent (S-nitrosylation of cysteine); 100 μM GSNO
T2 sequence (Q8WVD5 1-230 C82S): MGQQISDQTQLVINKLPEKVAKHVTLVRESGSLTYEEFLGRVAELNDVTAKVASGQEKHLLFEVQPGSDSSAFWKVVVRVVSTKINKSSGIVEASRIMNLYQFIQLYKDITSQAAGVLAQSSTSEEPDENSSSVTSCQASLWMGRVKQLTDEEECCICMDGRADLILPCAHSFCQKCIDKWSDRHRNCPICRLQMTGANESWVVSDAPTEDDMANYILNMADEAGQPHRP

RNF41 [3] = target: T3, RNF41 (Homo sapiens, UniProt Q9H4P4, C238S); conditions: covalent (S-nitrosylation of cysteine); 100 μM GSNO
T3 sequence (Q9H4P4 1-317 C238S): T1 sequence (Q9H4P4 1-317 C134S) with S134C, C238S

RNF11 [4] = target: T4, RNF11 (Homo sapiens, UniProt Q9Y3C5); conditions: covalent (S-nitrosylation, Cys4); 100 μM GSNO, 1 h; GSH control
T4 sequence (Q9Y3C5 1-154): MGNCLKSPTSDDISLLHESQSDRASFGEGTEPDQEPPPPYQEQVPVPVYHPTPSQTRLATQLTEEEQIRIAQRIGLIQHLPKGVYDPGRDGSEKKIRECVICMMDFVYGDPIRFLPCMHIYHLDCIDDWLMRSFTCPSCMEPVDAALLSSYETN

RNF11 [5] = target: T5, RNF11 (Homo sapiens, UniProt Q9Y3C5, C4S); conditions: covalent (S-nitrosylation of cysteine); 100 μM GSNO
T5 sequence (Q9Y3C5 1-154 C4S): T4 sequence (Q9Y3C5 1-154) with C4S

RNF41 [6] = target: T6, RNF41 (Homo sapiens, UniProt Q9H4P4, C106S); conditions: covalent (S-nitrosylation of cysteine); 100 μM GSNO
T6 sequence (Q9H4P4 1-317 C106S): T1 sequence (Q9H4P4 1-317 C134S) with C106S, S134C

RNF141 [7] = target: T7, RNF141 (Homo sapiens, UniProt Q8WVD5); conditions: covalent (S-nitrosylation of cysteine); 100 μM GSNO
T7 sequence (Q8WVD5 1-230): T2 sequence (Q8WVD5 1-230 C82S) with S82C

biotin-switch assay, anti-GST western blot (RNF11 [4]): Cys4 is S-nitrosylated in RNF11
Structure (SMILES): N[C@@H](CCC(=O)N[C@@H](CSN=O)C(=O)NCC(=O)O)C(=O)O [GSNO]
S-nitrosylation (BSM) (RNF41 [1]): C134S and C238S mutants have minimal effect on the S-nitrosylation of RNF41
S-nitrosylation (BSM) (RNF141 [2]): The C82S and C175S RNF141 proteins both show reduced S-nitrosylation compared with WT RNF141
S-nitrosylation (BSM) (RNF41 [3]): C134S and C238S mutants have minimal effect on the S-nitrosylation of RNF41
S-nitrosylation (BSM) (RNF11 [5]): The C4S RNF11 protein is not S-nitrosylated
S-nitrosylation (BSM) (RNF41 [6]): The C106S RNF41 protein S-nitrosylation signal is dramatically reduced compared with WT RNF41
S-nitrosylation (BSM) (RNF141 [7]): The C82S and C175S RNF141 proteins both show reduced S-nitrosylation compared with WT RNF141
